Assay results as given in patent publication US4287206A, “Halogen derivatives of 8-hydroxycarboxylic acids; the processes for their preparation and medicaments in which they are present” (priority 1978, dated 1981).

Key:
[1] = tested on: mice; assay: Anti-apomorphine activity in mice (hypothermia caused by apomorphine); type: in vivo
[2] = tested on: mice; assay: Sleep induced by pentobarbital in mice; type: in vivo; settings: pentobarbital 50 mg.kg^-1 i.p.
Experimental: (b) Absence of modification of the effects of pentobarbital
At time 0, the mice receive, by intraperitoneal or oral administration, distilled water or the medicament according to the invention, obtained in accordance with Example I. After 30 minutes, they receive pentobarbital (50 mg.kg^-1) by intraperitoneal administration.

CC1CC(c2ccc(Cl)cc2)C(c2ccccc2)C(=O)O1 (stereo not drawn) [Example I, trans-4-(4'-chlorophenyl)-6-methyl-3-phenyl-3,4,5,6-tetrahydropyrone-2]
Rectal temperatures, results in % inhibition of the hypothermia ([1]; 0.5 mg/kg intraperitoneal, apomorphine 1 mg.kg^-1 subcutaneously): 7%
Rectal temperatures, results in % inhibition of the hypothermia ([1]; 0.5 mg/kg intraperitoneal, apomorphine 16 mg.kg^-1 subcutaneously): -5%
Rectal temperatures, results in % inhibition of the hypothermia ([1]; 2 mg/kg intraperitoneal, apomorphine 1 mg.kg^-1 subcutaneously): 3%
Rectal temperatures, results in % inhibition of the hypothermia ([1]; 2 mg/kg intraperitoneal, apomorphine 16 mg.kg^-1 subcutaneously): 45%
Rectal temperatures, results in % inhibition of the hypothermia ([1]; 4 mg/kg intraperitoneal, apomorphine 1 mg.kg^-1 subcutaneously): -13%
Rectal temperatures, results in % inhibition of the hypothermia ([1]; 4 mg/kg intraperitoneal, apomorphine 16 mg.kg^-1 subcutaneously): 39%
Rectal temperatures, results in % inhibition of the hypothermia ([1]; 4 mg/kg oral, apomorphine 1 mg.kg^-1 subcutaneously): 0%
Rectal temperatures, results in % inhibition of the hypothermia ([1]; 4 mg/kg oral, apomorphine 16 mg.kg^-1 subcutaneously): 31%
Rectal temperatures, results in % inhibition of the hypothermia ([1]; 8 mg/kg oral, apomorphine 1 mg.kg^-1 subcutaneously): -2%
Rectal temperatures, results in % inhibition of the hypothermia ([1]; 8 mg/kg oral, apomorphine 16 mg.kg^-1 subcutaneously): 40%
Rectal temperatures, results in % inhibition of the hypothermia ([1]; 16 mg/kg intraperitoneal, apomorphine 1 mg.kg^-1 subcutaneously): 10%
Rectal temperatures, results in % inhibition of the hypothermia ([1]; 16 mg/kg intraperitoneal, apomorphine 16 mg.kg^-1 subcutaneously): 51%
Rectal temperatures, results in % inhibition of the hypothermia ([1]; 16 mg/kg oral, apomorphine 1 mg.kg^-1 subcutaneously): 0.5%
Rectal temperatures, results in % inhibition of the hypothermia ([1]; 16 mg/kg oral, apomorphine 16 mg.kg^-1 subcutaneously): 42%
Rectal temperatures, results in % inhibition of the hypothermia ([1]; 32 mg/kg oral, apomorphine 1 mg.kg^-1 subcutaneously): 45%
Rectal temperatures, results in % inhibition of the hypothermia ([1]; 32 mg/kg oral, apomorphine 16 mg.kg^-1 subcutaneously): 77%
Rectal temperatures, results in % inhibition of the hypothermia ([1]; 64 mg/kg oral, apomorphine 1 mg.kg^-1 subcutaneously): 51%
Rectal temperatures, results in % inhibition of the hypothermia ([1]; 64 mg/kg oral, apomorphine 16 mg.kg^-1 subcutaneously): 86%
Rectal temperatures, results in % inhibition of the hypothermia ([1]; 128 mg/kg oral, apomorphine 1 mg.kg^-1 subcutaneously): 68%
Rectal temperatures, results in % inhibition of the hypothermia ([1]; 128 mg/kg oral, apomorphine 16 mg.kg^-1 subcutaneously): 81%
Rectal temperatures, results in % inhibition of the hypothermia ([1]; 256 mg/kg oral, apomorphine 1 mg.kg^-1 subcutaneously): 89%
Rectal temperatures, results in % inhibition of the hypothermia ([1]; 256 mg/kg oral, apomorphine 16 mg.kg^-1 subcutaneously): 116%
% of mice which have slept ([2]; 2 mg/kg intraperitoneal): 100%
Time in minutes for induction of sleep ([2]; 2 mg/kg intraperitoneal): 4 min
Time in minutes of sleep ([2]; 2 mg/kg intraperitoneal): 47 ± 7 min
% of mice which have slept ([2]; 2 mg/kg oral): 100%
Time in minutes for induction of sleep ([2]; 2 mg/kg oral): 4 min
Time in minutes of sleep ([2]; 2 mg/kg oral): 60 ± 8 min
% of mice which have slept ([2]; 4 mg/kg intraperitoneal): 100%
Time in minutes for induction of sleep ([2]; 4 mg/kg intraperitoneal): 4 min
Time in minutes of sleep ([2]; 4 mg/kg intraperitoneal): 55 ± 8 min
% of mice which have slept ([2]; 4 mg/kg oral): 100%
Time in minutes for induction of sleep ([2]; 4 mg/kg oral): 4 min
Time in minutes of sleep ([2]; 4 mg/kg oral): 45 ± 4 min
% of mice which have slept ([2]; 8 mg/kg intraperitoneal): 100%
Time in minutes for induction of sleep ([2]; 8 mg/kg intraperitoneal): 4 min
Time in minutes of sleep ([2]; 8 mg/kg intraperitoneal): 36 ± 3 min
% of mice which have slept ([2]; 8 mg/kg oral): 100%
Time in minutes for induction of sleep ([2]; 8 mg/kg oral): 4 min
Time in minutes of sleep ([2]; 8 mg/kg oral): 57 ± 10 min
% of mice which have slept ([2]; 16 mg/kg intraperitoneal): 83%
Time in minutes for induction of sleep ([2]; 16 mg/kg intraperitoneal): 4.5 min
Time in minutes of sleep ([2]; 16 mg/kg intraperitoneal): 26 ± 7 min
% of mice which have slept ([2]; 16 mg/kg oral): 100%
Time in minutes for induction of sleep ([2]; 16 mg/kg oral): 4 min
Time in minutes of sleep ([2]; 16 mg/kg oral): 41 ± 7 min
% of mice which have slept ([2]; 32 mg/kg intraperitoneal): 92%
Time in minutes for induction of sleep ([2]; 32 mg/kg intraperitoneal): 4.5 min
Time in minutes of sleep ([2]; 32 mg/kg intraperitoneal): 27 ± 3 min
% of mice which have slept ([2]; 32 mg/kg oral): 100%
Time in minutes for induction of sleep ([2]; 32 mg/kg oral): 4 min
Time in minutes of sleep ([2]; 32 mg/kg oral): 49 ± 4 min
% of mice which have slept ([2]; 64 mg/kg intraperitoneal): 100%
Time in minutes for induction of sleep ([2]; 64 mg/kg intraperitoneal): 4 min
Time in minutes of sleep ([2]; 64 mg/kg intraperitoneal): 30 ± 9 min
% of mice which have slept ([2]; 64 mg/kg oral): 100%
Time in minutes for induction of sleep ([2]; 64 mg/kg oral): 5 min
Time in minutes of sleep ([2]; 64 mg/kg oral): 29 ± 8 min
% of mice which have slept ([2]; 128 mg/kg intraperitoneal): 83%
Time in minutes for induction of sleep ([2]; 128 mg/kg intraperitoneal): 6 min
Time in minutes of sleep ([2]; 128 mg/kg intraperitoneal): 25 ± 5 min
% of mice which have slept ([2]; 128 mg/kg oral): 100%
Time in minutes for induction of sleep ([2]; 128 mg/kg oral): 4 min
